Patent publication US8916599B2, “1H-benz imidazole-5-carboxamides as anti-inflammatory agents” (Orexo AB, priority 2008, dated 2014)

What follows are molecules tested against T1, recombinant human mPGES-1 (Homo sapiens, UniProt O14684) (assay: mPGES-1 inhibition test (microsomes, PGH2 substrate, HTRF detection of PGE2)). Settings: inhibition of mPGES-1 at 1 μM (marked in cell).
T1 construct: made in house; host or cells: Rosetta E. coli (microsomal/membrane fraction)
T1 sequence (O14684 1-152): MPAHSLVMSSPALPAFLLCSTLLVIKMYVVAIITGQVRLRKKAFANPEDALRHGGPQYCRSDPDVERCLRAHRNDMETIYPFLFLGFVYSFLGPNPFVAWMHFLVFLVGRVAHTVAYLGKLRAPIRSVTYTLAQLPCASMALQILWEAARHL
Assay type: biochemical
Procedure, shortened: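 First, inhibitor is incubated with microsomal enzyme from Rosetta E. coli in KPi pH 7.4 containing 2.5 mM GSH for 25 minutes at room temperature. Next, PGH2 is added and stopped after one minute with FeCl2 stop solution. Finally, diluted samples undergo HTRF PGE2 quantification.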

| inhibition at 1 µM [%] | Structure (SMILES) |
| --- | --- |
| 100 | O=C(Nc1ccc(Br)c(F)c1)c1ccc2[nH]c(Nc3c(Cl)cccc3Cl)nc2c1 [Example 68, 2-(2,6-Dichloro-phenylamino)-1H-benzimidazole-5-carboxylic acid (4-bromo-3-fluoro-phenyl)-amide] |
| 92 | Cc1ccc(Cl)c(Nc2nc3cc(C(=O)N[C@H]4CC[C@H](C(F)(F)F)CC4)c(F)cc3[nH]2)c1F [Example 653, 2-(6-Chloro-2-fluoro-3-methyl-phenylamino)-N-(trans-4-trifluoromethyl-cyclohex-1-yl)-6-fluoro-1H-benzimidazole-5-carboxamide] |

Same assay, conditions: inhibition of mPGES-1 at 10 μM

| Structure (SMILES) | inhibition at 10 µM [%] |
| --- | --- |
| Cc1nc(NC(=O)c2ccc3c(c2)nc(Nc2c(Cl)cccc2Cl)n3C)cc2c1CCCC2 [Example 139, 2-(2,6-Dichloro-phenylamino)-1-methyl-1H-benzimidazole-5-carboxylic acid (1-methyl-5,6,7,8-tetrahydro-isoquinolin-3-yl)-amide] | 98 |
| Cn1c(Nc2c(Cl)cccc2Cl)nc2cc(C(=O)NC3CCc4ccccc4C3)c(F)cc21 (stereo not drawn) [Example 162, 2-(2,6-Dichloro-phenylamino)-6-fluoro-1-methyl-1H-benzimidazole-5-carboxylic acid (1,2,3,4-tetrahydro-naphthalen-2-yl)-amide] | 100 |
| Cn1c(Nc2c(Cl)cccc2Cl)nc2cc(C(=O)N[C@H]3CC[C@H](C(F)(F)F)CC3)c(F)cc21 [Example 158, 2-(2,6-Dichloro-phenylamino)-6-fluoro-1-methyl-1H-benzimidazole-5-carboxylic acid (trans-4-trifluoromethyl-cyclohexyl)-amide] | 100 |
| O=C(NC1COc2ccccc2C1)c1ccc2[nH]c(Nc3c(Cl)cccc3Cl)nc2c1 (stereo not drawn) [Example 153, 2-(2,6-Dichloro-phenylamino)-1H-benzimidazole-5-carboxylic acid chroman-3-ylamide] | 98 |
| Cc1cccc(C)c1Nc1nc2cc(C(=O)Nc3ccccc3)ccc2[nH]1 [Example 13, 2-(2,6-Dimethyl-phenylamino)-1H-benzimidazole-5-carboxylic acid-phenylamide] | 100 |
| Cn1c(Nc2c(Cl)cccc2Cl)nc2cc(C(=O)NC3COc4ccccc4C3)c(F)cc21 (stereo not drawn) [Example 160, 2-(2,6-Dichloro-phenylamino)-6-fluoro-1-methyl-1H-benzimidazole-5-carboxylic acid chroman-3-ylamide] | 98 |
| COCCn1c(Nc2c(Cl)cccc2Cl)nc2cc(C(=O)NC3CCC(C)(C)CC3)ccc21 [Example 180, 2-(2,6-Dichloro-phenylamino)-1-(2-methoxy-ethyl)-1H-benzimidazole-5-carboxylic acid (4,4-dimethyl-cyclohexyl)-amide] | 98 |
| Cn1c(Nc2c(Cl)cccc2Cl)nc2cc(C(=O)NC3CCC(C)(C)CC3)c(F)cc21 [Example 157, 2-(2,6-Dichloro-phenylamino)-6-fluoro-1-methyl-1H-benzimidazole-5-carboxylic acid (4,4-dimethyl-cyclohexyl)-amide] | 100 |
| Cn1c(Nc2c(Cl)cccc2Cl)nc2cc(C(=O)N[C@H]3CC[C@@H](C(F)(F)F)CC3)c(F)cc21 [Example 170, 2-(2,6-Dichloro-phenylamino)-6-fluoro-1-methyl-1H-benzimidazole-5-carboxylic acid (cis-4-trifluoromethyl-cyclohexyl)-amide] | 100 |
| O=C(N[C@H]1CC[C@@H](C(F)(F)F)CC1)c1ccc2[nH]c(Nc3c(Cl)cccc3Cl)nc2c1 [Example 168, 2-(2,6-Dichloro-phenylamino)-1H-benzimidazole-5-carboxylic acid (cis-4-trifluoromethyl-cyclohexyl)-amide] | 100 |
| COc1cc2c(cc1C(=O)NCc1ccccc1C(F)(F)F)nc(Nc1c(Cl)cccc1Cl)n2C [Example 136, 2-(2,6-Dichloro-phenylamino)-6-methoxy-1-methyl-1H-benzimidazole-5-carboxylic acid 2-trifluoromethyl-benzylamide] | 98 |
| O=C(Nc1ccc(Br)cc1)c1ccc2[nH]c(Nc3c(Cl)cccc3Cl)nc2c1 [Example 66, 2-(2,6-Dichloro-phenylamino)-1H-benzimidazole-5-carboxylic acid (4-bromo-phenyl)-amide] | 100 |

Now from value to molecule:

| inhibition at 10 µM [%] | Structure (SMILES) |
| --- | --- |
| 74 | O=C(NCc1ccc(C(F)(F)F)cn1)c1ccc2[nH]c(Nc3c(Cl)cccc3Cl)nc2c1 [Example 222, 2-(2,6-Dichloro-phenylamino)-1H-benzimidazole-5-carboxylic acid (5-trifluoromethyl-pyridin-2-ylmethyl)-amide] |
| 98 | COc1cccc(NC(=O)c2ccc3nc(Nc4c(Cl)cccc4Cl)[nH]c3c2)n1 [Example 194, 2-(2,6-Dichloro-phenylamino)-3H-benzimidazole-5-carboxylic acid (6-methoxy-pyridin-2-yl)-amide] |
| 100 | CC1CC(NC(=O)c2ccc3c(c2)nc(Nc2c(Cl)cccc2Cl)n3C)CC(C)(C)C1 (stereo not drawn) [Example 241, 2-(2,6-Dichloro-phenylamino)-1-methyl-1H-benzimidazole-5-carboxylic acid (3,3,5-trimethyl-cyclohexyl)-amide] |
| 97 | O=C(N[C@H]1CC[C@H](C(F)(F)F)CC1)c1cc2nc(Nc3c(Cl)ccc(Cl)c3F)[nH]c2cc1OCC(F)(F)F [Example 592, 2-(3,6-Dichloro-2-fluoro-phenylamino)-N-(4-trans-trifluoromethyl-cyclohex-1-yl)-6-(2,2,2-trifluorethoxy)-1H-benzimidazole-5-carboxamide] |
| 85 | Cc1cccc(NC(=O)c2ccc3[nH]c(Nc4c(Cl)cccc4Cl)nc3c2)n1 [compound 336] |
| 100 | COc1cc2c(cc1C(=O)NCc1ncccc1Cl)nc(Nc1c(Cl)cccc1Cl)n2C [Example 631] |
| 100 | Cc1cc(C)nc(NC(=O)c2ccc3c(c2)nc(Nc2c(Cl)cccc2Cl)n3C)c1 [Example 201, 2-(2,6-Dichloro-phenylamino)-1-methyl-1H-benzimidazole-5-carboxylic acid (4,6-dimethyl-pyridin-2-yl)-amide] |
| 97 | Cc1cc2nc(NC(=O)c3ccc4[nH]c(Nc5c(Cl)cccc5Cl)nc4c3)[nH]c2cc1C [Example 314, 2-(2,6-Dichloro-phenylamino)-1H-benzimidazole-5-carboxylic acid (5,6-dimethyl-1H-benzimidazol-2-yl)-amide] |
| 98 | O=C(NCc1ccc(Cl)cc1)c1ccc2[nH]c(Nc3c(Cl)cccc3Cl)nc2c1 [Example 309, 2-(2,6-Dichloro-phenylamino)-1H-benzimidazole-5-carboxylic acid 4-chloro-benzylamide] |
| 86 | N#CC1(NC(=O)c2ccc3[nH]c(Nc4c(Cl)cccc4Cl)nc3c2)CCCCC1 [Example 231, 2-(2,6-Dichloro-phenylamino)-1H-benzimidazole-5-carboxylic acid (1-cyano-cyclohexyl)-amide] |
| 93 | CCOc1cc2c(cc1C(=O)NC1CCC(C(F)(F)F)CC1)nc(Nc1c(Cl)ccc(Cl)c1F)n2C (stereo not drawn) [Example 605, 2-(3,6-Dichloro-2-fluoro-phenylamino)-6-ethoxy-N-(4-trans-trifluoromethyl-cyclohex-1-yl)-1-methyl-1H-benzimidazole-5-carboxamide] |
| 98 | O=C(Nc1cccc(Cl)n1)c1ccc2[nH]c(Nc3c(Cl)cccc3Cl)nc2c1 [Example 185, 2-(2,6-Dichloro-phenylamino)-1H-benzimidazole-5-carboxylic acid (6-chloro-pyridin-2-yl)-amide] |
| 94 | Cn1c(Nc2c(Cl)ccc(Cl)c2F)nc2cc(C(=O)NC3CCC4(CC3)CC4)c(F)cc21 [Example 606, 2-(3,6-Dichloro-2-fluoro-phenylamino)-6-fluoro-N-(spiro[2.5]oct-6-yl)-1-methyl-1H-benzimidazole-5-carboxamide] |
| 100 | O=C(Nc1ccc(Br)cc1)c1cc2nc(Nc3c(F)ccc(Cl)c3Cl)[nH]c2cc1OCC(F)(F)F [Example 588, N-(4-Bromo-phenyl)-2-(2,3-dichloro-6-fluoro-phenylamino)-6-(2,2,2-trifluoroethoxy)-1H-benzimidazole-5-carboxamide] |
| 97 | COc1cc2c(cc1C(=O)Nc1cc(Cl)c(C)cn1)nc(Nc1c(Cl)cccc1Cl)n2C [Example 634, 2-(2,6-Dichlorophenylamino)-N-(4-chloro-5-methyl-pyridin-2-yl)-6-methoxy-1-methyl-1H-benzimidazole-5-carboxamide] |
| 100 | O=C(N[C@H]1CC[C@H](C(F)(F)F)CC1)c1cc2nc(Nc3c(Cl)cccc3Cl)[nH]c2cc1OCC(F)(F)F [Example 589, 2-(2,6-Dichloro-phenylamino)-6-(2,2,2-trifluoroethoxy)-N-(trans-4-trifluormethyl-cyclohex-1-yl)-1H-benzimidazole-5-carboxamide] |
| 99 | Cc1cc(NC(=O)c2ccc3nc(Nc4c(Cl)cccc4Cl)[nH]c3c2)ccn1 [Example 193, 2-(2,6-Dichloro-phenylamino)-3H-benzimidazole-5-carboxylic acid (2-methyl-pyridin-4-yl)-amide] |
| 97 | Cn1c(Nc2c(Cl)cccc2Cl)nc2cc(C(=O)NCc3cc(C(F)(F)F)ccn3)ccc21 [Example 245, 2-(2,6-Dichloro-phenylamino)-1-methyl-1H-benzimidazole-5-carboxylic acid (4-trifluoromethyl-pyridin-2-ylmethyl)-amide] |
| 100 | CC1CC(NC(=O)c2ccc3[nH]c(Nc4c(Cl)cccc4Cl)nc3c2)CC(C)(C)C1 (stereo not drawn) [Example 218, 2-(2,6-Dichloro-phenylamino)-1H-benzimidazole-5-carboxylic acid (3,3,5-trimethyl-cyclohexyl)-amide] |
